Assay results taken from the kinase profiling compilation of Christmann-Franck et al. (2016).

Key:
Assay in all cases: KINOMEscan competition binding
Conditions in all cases: compound 10.0 µM
PRKACB (human) = PRKACB (human) (UniProt P22694)
LTK (human) = LTK (human) (UniProt P29376)
ACVR2B (human) = ACVR2B (human) (UniProt Q13705)
CHEK2 (human) = CHEK2 (human) (UniProt O96017)
CDKL3 (human) = CDKL3 (human) (UniProt Q8IVW4)
STK33 (human) = STK33 (human) (UniProt Q9BYT3)
MAPK9 (human) = MAPK9 (human) (UniProt P45984)
ZAP70 (human) = ZAP70 (human) (UniProt P43403)
[1] = target: TYK2 JH1 catalytic (human) (UniProt P29597)
EPHB2 (human) = EPHB2 (human) (UniProt P29323)
EPHB2 (human), sequence (P29323 whole entry, looked up): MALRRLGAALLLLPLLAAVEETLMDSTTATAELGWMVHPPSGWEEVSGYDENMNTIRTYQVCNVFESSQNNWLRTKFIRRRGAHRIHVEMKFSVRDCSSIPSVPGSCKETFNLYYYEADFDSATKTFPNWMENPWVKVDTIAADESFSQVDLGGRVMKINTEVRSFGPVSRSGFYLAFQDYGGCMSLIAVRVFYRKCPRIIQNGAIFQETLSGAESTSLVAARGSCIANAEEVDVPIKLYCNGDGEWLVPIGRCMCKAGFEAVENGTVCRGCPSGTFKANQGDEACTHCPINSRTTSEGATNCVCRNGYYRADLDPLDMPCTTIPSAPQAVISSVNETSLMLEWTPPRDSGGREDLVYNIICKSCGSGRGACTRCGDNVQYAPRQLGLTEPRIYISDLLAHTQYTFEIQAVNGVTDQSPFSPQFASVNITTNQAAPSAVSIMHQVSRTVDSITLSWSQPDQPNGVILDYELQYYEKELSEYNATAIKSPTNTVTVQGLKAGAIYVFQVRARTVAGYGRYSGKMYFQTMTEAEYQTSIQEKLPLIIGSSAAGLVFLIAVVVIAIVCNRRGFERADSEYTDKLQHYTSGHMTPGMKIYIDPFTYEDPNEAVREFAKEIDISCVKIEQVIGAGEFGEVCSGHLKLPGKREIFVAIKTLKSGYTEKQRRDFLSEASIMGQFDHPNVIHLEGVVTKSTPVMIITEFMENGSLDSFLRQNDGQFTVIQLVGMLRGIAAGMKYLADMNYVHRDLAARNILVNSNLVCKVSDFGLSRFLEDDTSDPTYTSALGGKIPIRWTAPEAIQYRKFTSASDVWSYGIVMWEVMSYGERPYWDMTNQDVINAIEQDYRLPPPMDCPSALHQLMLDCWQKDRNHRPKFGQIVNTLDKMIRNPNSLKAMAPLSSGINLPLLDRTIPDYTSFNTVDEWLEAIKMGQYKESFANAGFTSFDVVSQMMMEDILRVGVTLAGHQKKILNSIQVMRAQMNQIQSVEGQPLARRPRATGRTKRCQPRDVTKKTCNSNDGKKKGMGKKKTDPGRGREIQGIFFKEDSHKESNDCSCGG

CAMK1G (human) = CAMK1G (human) (UniProt Q96NX5)
PI4KB (human) = PI4KB (human) (UniProt Q9UBF8)
STK24 (human) = STK24 (human) (UniProt Q9Y6E0)
STK24 (human), sequence (Q9Y6E0 whole entry, looked up): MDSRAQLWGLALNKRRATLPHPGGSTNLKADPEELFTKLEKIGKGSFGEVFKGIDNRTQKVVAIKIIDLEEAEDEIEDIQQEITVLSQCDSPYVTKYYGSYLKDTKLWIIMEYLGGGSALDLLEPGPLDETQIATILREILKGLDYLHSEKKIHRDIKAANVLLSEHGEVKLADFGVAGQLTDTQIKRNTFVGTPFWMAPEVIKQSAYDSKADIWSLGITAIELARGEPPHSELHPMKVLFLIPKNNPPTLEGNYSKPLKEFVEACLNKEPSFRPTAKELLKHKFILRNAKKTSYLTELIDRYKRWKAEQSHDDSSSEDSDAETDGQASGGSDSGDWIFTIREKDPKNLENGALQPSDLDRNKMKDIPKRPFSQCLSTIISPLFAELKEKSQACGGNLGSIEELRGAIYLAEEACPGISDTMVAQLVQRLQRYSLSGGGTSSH

CSNK1D (human) = CSNK1D (human) (UniProt P48730)
MAP3K12 (human) = MAP3K12 (human) (UniProt Q12852)
PAK6 (human) = PAK6 (human) (UniProt Q9NQU5)
PAK6 (human), sequence (Q9NQU5 whole entry, looked up): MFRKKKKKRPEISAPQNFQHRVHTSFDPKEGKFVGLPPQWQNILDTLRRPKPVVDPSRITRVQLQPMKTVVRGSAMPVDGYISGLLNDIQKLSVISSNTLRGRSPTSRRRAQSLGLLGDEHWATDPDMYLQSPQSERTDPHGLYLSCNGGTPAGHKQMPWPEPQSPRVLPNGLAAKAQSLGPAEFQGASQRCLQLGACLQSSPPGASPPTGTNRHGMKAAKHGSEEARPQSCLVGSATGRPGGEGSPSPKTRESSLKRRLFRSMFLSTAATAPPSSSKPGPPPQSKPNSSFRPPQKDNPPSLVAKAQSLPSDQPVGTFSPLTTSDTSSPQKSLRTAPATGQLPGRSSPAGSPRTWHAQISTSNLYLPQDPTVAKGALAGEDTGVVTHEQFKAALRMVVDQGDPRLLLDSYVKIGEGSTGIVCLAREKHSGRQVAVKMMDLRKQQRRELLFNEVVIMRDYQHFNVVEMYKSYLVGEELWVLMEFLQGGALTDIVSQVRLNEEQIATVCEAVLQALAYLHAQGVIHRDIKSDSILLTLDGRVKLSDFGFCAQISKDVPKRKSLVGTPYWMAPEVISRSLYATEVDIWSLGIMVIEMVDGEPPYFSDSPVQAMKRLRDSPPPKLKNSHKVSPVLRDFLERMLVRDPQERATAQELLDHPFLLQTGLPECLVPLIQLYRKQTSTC

PAK3 (human) = PAK3 (human) (UniProt O75914)
PAK3 (human), sequence (O75914 whole entry, looked up): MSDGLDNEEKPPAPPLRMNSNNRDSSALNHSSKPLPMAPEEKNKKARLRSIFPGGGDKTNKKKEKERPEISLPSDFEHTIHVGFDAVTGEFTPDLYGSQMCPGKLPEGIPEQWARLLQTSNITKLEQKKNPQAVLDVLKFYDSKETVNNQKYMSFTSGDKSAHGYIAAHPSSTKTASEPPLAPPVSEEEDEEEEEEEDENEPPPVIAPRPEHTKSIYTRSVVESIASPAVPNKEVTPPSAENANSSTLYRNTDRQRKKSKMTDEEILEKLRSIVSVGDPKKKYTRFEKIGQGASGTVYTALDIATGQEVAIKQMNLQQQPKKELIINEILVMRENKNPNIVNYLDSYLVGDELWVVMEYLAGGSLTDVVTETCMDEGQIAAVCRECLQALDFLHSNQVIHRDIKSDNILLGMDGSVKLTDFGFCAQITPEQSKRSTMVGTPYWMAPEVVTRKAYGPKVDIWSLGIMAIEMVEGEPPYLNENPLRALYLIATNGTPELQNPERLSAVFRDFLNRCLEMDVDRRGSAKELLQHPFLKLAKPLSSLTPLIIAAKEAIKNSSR

NEK3 (human) = NEK3 (human) (UniProt P51956)
NEK3 (human), sequence (P51956 whole entry, looked up): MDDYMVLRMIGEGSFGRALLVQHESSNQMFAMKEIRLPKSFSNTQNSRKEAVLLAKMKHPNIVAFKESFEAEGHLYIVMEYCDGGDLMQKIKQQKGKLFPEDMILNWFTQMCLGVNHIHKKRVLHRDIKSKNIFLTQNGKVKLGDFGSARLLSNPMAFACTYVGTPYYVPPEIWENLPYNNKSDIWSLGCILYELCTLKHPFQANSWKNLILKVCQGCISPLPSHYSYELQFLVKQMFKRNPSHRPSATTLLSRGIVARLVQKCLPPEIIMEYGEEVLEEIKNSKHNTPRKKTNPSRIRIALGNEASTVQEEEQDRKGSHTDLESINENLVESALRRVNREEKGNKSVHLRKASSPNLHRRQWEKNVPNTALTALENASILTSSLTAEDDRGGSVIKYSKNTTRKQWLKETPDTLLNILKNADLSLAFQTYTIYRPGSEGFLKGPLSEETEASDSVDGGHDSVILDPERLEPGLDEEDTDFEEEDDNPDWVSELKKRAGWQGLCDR

PRKD1 (human) = PRKD1 (human) (UniProt Q15139)
CDKL2 (human) = CDKL2 (human) (UniProt Q92772)
RPS6KA4 KD2 (human) = RPS6KA4 KD2 (human) (UniProt O75676)
MAP3K10 (human) = MAP3K10 (human) (UniProt Q02779)
[2] = target: JAK1 JH2 pseudokinase (human) (UniProt P23458)
STK4 (human) = STK4 (human) (UniProt Q13043)
STK4 (human), sequence (Q13043 whole entry, looked up): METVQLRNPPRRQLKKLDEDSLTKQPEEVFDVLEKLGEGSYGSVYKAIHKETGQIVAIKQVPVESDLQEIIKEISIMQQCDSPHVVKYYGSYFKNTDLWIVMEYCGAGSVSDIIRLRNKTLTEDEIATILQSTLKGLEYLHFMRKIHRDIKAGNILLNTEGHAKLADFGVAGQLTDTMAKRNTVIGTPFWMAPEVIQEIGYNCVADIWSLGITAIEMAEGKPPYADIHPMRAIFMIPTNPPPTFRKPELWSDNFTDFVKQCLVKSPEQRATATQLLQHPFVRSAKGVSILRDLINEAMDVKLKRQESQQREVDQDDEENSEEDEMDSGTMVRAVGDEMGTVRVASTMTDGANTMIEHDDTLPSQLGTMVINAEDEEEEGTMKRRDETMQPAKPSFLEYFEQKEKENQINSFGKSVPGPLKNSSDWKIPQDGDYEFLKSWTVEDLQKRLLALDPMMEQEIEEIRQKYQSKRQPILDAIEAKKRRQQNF

IKBKE (human) = IKBKE (human) (UniProt Q14164)
ACVR1 (human) = ACVR1 (human) (UniProt Q04771)
IRAK3 (human) = IRAK3 (human) (UniProt Q9Y616)
MLTK (human) = MLTK (human) (UniProt Q9NYL2)
NEK4 (human) = NEK4 (human) (UniProt P51957)
MAPK13 (human) = MAPK13 (human) (UniProt O15264)
MAPK13 (human), sequence (O15264 whole entry, looked up): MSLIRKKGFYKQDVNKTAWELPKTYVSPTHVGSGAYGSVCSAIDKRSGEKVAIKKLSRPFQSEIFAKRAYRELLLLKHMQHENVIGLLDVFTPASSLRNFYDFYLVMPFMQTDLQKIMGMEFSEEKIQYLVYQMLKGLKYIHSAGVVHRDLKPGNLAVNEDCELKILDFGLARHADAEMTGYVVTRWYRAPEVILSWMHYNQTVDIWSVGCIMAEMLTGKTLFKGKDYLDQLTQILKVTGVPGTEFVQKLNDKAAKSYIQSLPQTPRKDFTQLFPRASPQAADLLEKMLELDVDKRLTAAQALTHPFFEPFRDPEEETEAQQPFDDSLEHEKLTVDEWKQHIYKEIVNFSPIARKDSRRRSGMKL

PAK2 (human) = PAK2 (human) (UniProt Q13177)
RIPK1 (human) = RIPK1 (human) (UniProt Q13546)
CLK4 (human) = CLK4 (human) (UniProt Q9HAZ1)
MARK3 (human) = MARK3 (human) (UniProt P27448)
HCK (human) = HCK (human) (UniProt P08631)
ERBB4 (human) = ERBB4 (human) (UniProt Q15303)
MAP4K4 (human) = MAP4K4 (human) (UniProt O95819)
MAP4K2 (human) = MAP4K2 (human) (UniProt Q12851)
RPS6KA1 KD1 (human) = RPS6KA1 KD1 (human) (UniProt Q15418)
CAMKK2 (human) = CAMKK2 (human) (UniProt Q96RR4)

CHEK2 (human), sequence (O96017 whole entry, looked up): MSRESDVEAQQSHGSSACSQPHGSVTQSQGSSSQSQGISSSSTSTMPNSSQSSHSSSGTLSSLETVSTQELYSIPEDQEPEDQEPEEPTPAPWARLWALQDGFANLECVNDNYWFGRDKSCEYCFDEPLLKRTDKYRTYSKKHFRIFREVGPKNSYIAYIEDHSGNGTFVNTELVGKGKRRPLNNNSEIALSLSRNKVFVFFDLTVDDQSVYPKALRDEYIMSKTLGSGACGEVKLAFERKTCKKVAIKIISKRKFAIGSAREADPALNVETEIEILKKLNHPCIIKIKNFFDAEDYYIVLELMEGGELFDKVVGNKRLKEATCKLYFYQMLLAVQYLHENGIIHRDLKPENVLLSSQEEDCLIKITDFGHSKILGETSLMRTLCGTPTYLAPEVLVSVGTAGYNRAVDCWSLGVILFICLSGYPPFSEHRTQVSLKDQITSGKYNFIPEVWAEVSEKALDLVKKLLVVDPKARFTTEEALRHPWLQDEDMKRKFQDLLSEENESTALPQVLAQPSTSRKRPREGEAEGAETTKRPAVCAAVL

Compound	kinase still bound, per cent of control (PRKACB (human))	kinase still bound, per cent of control (LTK (human))	kinase still bound, per cent of control (ACVR2B (human))	kinase still bound, per cent of control (CHEK2 (human))	kinase still bound, per cent of control (CDKL3 (human))	kinase still bound, per cent of control (STK33 (human))	kinase still bound, per cent of control (MAPK9 (human))	kinase still bound, per cent of control (ZAP70 (human))	kinase still bound, per cent of control [1]	kinase still bound, per cent of control (EPHB2 (human))	kinase still bound, per cent of control (CAMK1G (human))	kinase still bound, per cent of control (STK24 (human))	kinase still bound, per cent of control (CSNK1D (human))	kinase still bound, per cent of control (MAP3K12 (human))	kinase still bound, per cent of control (PAK6 (human))	kinase still bound, per cent of control (PAK3 (human))	kinase still bound, per cent of control (NEK3 (human))	kinase still bound, per cent of control (PRKD1 (human))	kinase still bound, per cent of control (CDKL2 (human))	kinase still bound, per cent of control (RPS6KA4 KD2 (human))	further results
C[C@@H](Oc1cc(-c2cnn(C3CCNCC3)c2)cnc1N)c1c(Cl)ccc(F)c1Cl	100%	0.3%	38%	100%	68%	26%	82%	29%	14%	24%	76%	44%	100%	9%	72%	5.8%	100%	2.4%	5.4%	50%	kinase still bound, per cent of control (PI4KB (human)): 100%; kinase still bound, per cent of control (MAP3K10 (human)): 79%; kinase still bound, per cent of control [2]: 1.8%; kinase still bound, per cent of control (STK4 (human)): 3.9%; kinase still bound, per cent of control (IKBKE (human)): 60%; kinase still bound, per cent of control (ACVR1 (human)): 0.6%; kinase still bound, per cent of control (IRAK3 (human)): 0.95%; kinase still bound, per cent of control (MLTK (human)): 100%; kinase still bound, per cent of control (NEK4 (human)): 25%; kinase still bound, per cent of control (MAPK13 (human)): 100%; kinase still bound, per cent of control (PAK2 (human)): 96%; kinase still bound, per cent of control (RIPK1 (human)): 5%; kinase still bound, per cent of control (CLK4 (human)): 100%
CNC(=O)c1cc(Oc2ccc(NC(=O)Nc3ccc(Cl)c(C(F)(F)F)c3)cc2)ccn1	100%	88%	75%	100%	0.6%	33%	19%	100%	70%	17%	99%	97%	100%	57%	91%	40%	70%	32%	0.3%	89%	kinase still bound, per cent of control (MARK3 (human)): 74%; kinase still bound, per cent of control (HCK (human)): 27%; kinase still bound, per cent of control (ERBB4 (human)): 100%; kinase still bound, per cent of control (MAP4K4 (human)): 18%; kinase still bound, per cent of control (MAP4K2 (human)): 100%; kinase still bound, per cent of control (RPS6KA1 KD1 (human)): 82%; kinase still bound, per cent of control (MAP3K10 (human)): 73%; kinase still bound, per cent of control [2]: 100%; kinase still bound, per cent of control (STK4 (human)): 81%; kinase still bound, per cent of control (IKBKE (human)): 100%; kinase still bound, per cent of control (ACVR1 (human)): 100%; kinase still bound, per cent of control (IRAK3 (human)): 81%; kinase still bound, per cent of control (MLTK (human)): 4.2%; kinase still bound, per cent of control (NEK4 (human)): 81%; kinase still bound, per cent of control (MAPK13 (human)): 7.6%; kinase still bound, per cent of control (PAK2 (human)): 73%; kinase still bound, per cent of control (RIPK1 (human)): 81%; kinase still bound, per cent of control (CLK4 (human)): 52%; kinase still bound, per cent of control (CAMKK2 (human)): 72%
